In patent US7776851B2, “Use of neurokinin antagonists in the treatment of urinary incontinence” (Novartis AG, priority 2003, dated 2010):

How the values were obtained:
[1] = test system: conscious guinea pigs; assay: 5-HTP-stimulated micturition (overactive urinary bladder responses) in conscious guinea pigs; format: in vivo, guinea pig; details: for decrease of micturition volume / decrease of voiding frequency: one hour prior to 5-HTP (10 mg/kg s.c.), assessed over 17 hours, mean±SEM
Method: In conscious guinea pigs, an experimental paradigm is applied to stimulate micturition through subcutaneous administration of 5-hydroxytryptophan (5-HTP, 10 mg/kg). The measurement of both voiding frequency and micturition volume is used to quantify the effects of the compound of formula II (Belis, et al 1996). Vehicle or the compound of formula II (1 and 3 mg/kg) are dosed orally one hour prior to the stimulation with 5-HTP.
The effects of vehicle and the compound of formula II are assessed over 17 hours in 4 to 8 animals. […] The compound of formula II attenuates the overactive bladder responses upon stimulation with 5-HTP.
The effects are statistically significant at both doses tested (p<0.05; RM ANOVA, post-hoc Tukey test). See also FIG. 1.

[2] = test system: longitudinal muscle-nerve preparations from the guinea-pig urinary bladder; assay: Substance P-stimulated detrusor contractility, organ bath; format: cell-based
Method: Detrusor contractility is tested in longitudinal muscle-nerve preparations from the guinea-pig urinary bladder (Mackenzie and Burnstock 1984). In organ bath studies, isometric contractile responses are evoked by cumulative application of substance P (0.1 nM up to 30 μM). Substance P stimulates contractions in a concentration-dependent fashion (pD2=6.68±0.23; mean±SEM; n=5 preparations).

[3] = 5-HTP 10 mg/kg subcutaneous, over 17 hours

## N[C@@H](Cc1c[nH]c2ccc(O)cc12)C(=O)O [S-HTP, 5-hydroxytryptophan, reference compound]
[1]; [3]
  increase of micturition volume as compared to control animals: 4.5 fold
  increase of voiding frequency as compared to control animals: 2.7 fold

## substance P [reference compound]
[2]; cumulative application 0.1 nM up to 30 μM, mean±SEM, n=5 preparations
  pD2, stimulation of isometric contractions: 6.68±0.23

## CN(C(=O)c1cc(C(F)(F)F)cc(C(F)(F)F)c1)[C@@H](/C=C/C(=O)N[C@@H]1CCCCNC1=O)Cc1ccc(Cl)c(Cl)c1 [compound of formula II, (4R)-4-[N′-methyl-N′-(3,5-bistrifluoromethylbenzoyl)amino]-4-(3,4-dichlorobenzyl)-but-2-enoic acid N-[(R)-epsilon-caprolactam-3-yl]-amide]
[2]; 10 nM, 100 nM and 1000 nM vs substance P
  Schild plot slope: −0.98
[2]; 10 nM, 100 nM and 1000 nM, competitive, substance P 0.1 nM up to 30 μM cumulative
  pA2 (Schild plot analysis), inhibition of substance P-evoked contractile responses: 7.97
[1]; 1 mg/kg p.o.
  decrease of micturition volume: 32.9%±4.5%
  decrease of voiding frequency: 45.4%±7.1%
[1]; 3 mg/kg p.o.
  decrease of micturition volume: 36.6%±6.2%
  decrease of voiding frequency: 26.2%±7.1%
